Assays:
Format in all cases: functional
HeLa = assay: Antiproliferative activity against human HeLa cells assessed as cell growth inhibition after 72 hrs by MTT assay
MCF7 = assay: Antiproliferative activity against human MCF7 cells assessed as cell growth inhibition after 72 hrs by MTT assay; settings: MCF7, 72 h
A2780 [1] = assay: Cell cycle arrest in human A2780 cells assessed as accumulation at S phase at 0.06 uM after 24 hrs by flow cytometric analysis (reference value: 22.72%)
WI-38 [2] = assay: Induction of apoptosis in human WI38 cells assessed as early-stage apoptotic cells at 0.06 uM after 48 hrs by annexin V/PI double staining (reference value: 2.16%)
WI-38 [3] = assay: Induction of apoptosis in human WI38 cells assessed as necrotic cells at 1 uM after 48 hrs by annexin V/PI double staining (reference value: 0.99%)
WI-38 [4] = assay: Cell cycle arrest in human WI38 cells assessed as accumulation at G2/M phase at […] after 24 hrs by flow cytometric analysis (reference value: 17.36%)
WI-38 [5] = assay: Induction of apoptosis in human WI38 cells assessed as viable cells at 1 uM after 48 hrs by annexin V/PI double staining (reference value: 80.59%); settings: WI-38, 48 h, read-out: Activity
HCT-116 = assay: Antiproliferative activity against human HCT116 cells assessed as cell growth inhibition after 72 hrs by MTT assay; settings: HCT-116, 72 h
WI-38 [6] = assay: Induction of apoptosis in human WI38 cells assessed as late-stage apoptotic cells at 1 uM after 48 hrs by annexin V/PI double staining (reference value: 16.26%)
A2780 [7] = assay: Induction of apoptosis in human A2780 cells assessed as late-stage apoptotic cells at […] after 48 hrs by annexin V/PI double staining (reference value: 10.20%)
WI-38 [8] = assay: Cell cycle arrest in human WI38 cells assessed as accumulation at G1 phase at 0.06 uM after 24 hrs by flow cytometric analysis (reference value: 55.89%)
A2780 [9] = assay: Cell cycle arrest in human A2780 cells assessed as accumulation at subG1 phase at 0.06 uM after 24 hrs by flow cytometric analysis (reference value: 0.62%)
A2780 [10] = assay: Cell cycle arrest in human A2780 cells assessed as accumulation at subG1 phase at 1 uM after 24 hrs by flow cytometric analysis (reference value: 0.62%)
A2780 [11] = assay: Induction of apoptosis in human A2780 cells assessed as viable cells at 1 uM after 48 hrs by annexin V/PI double staining (reference value: 82.12%); settings: A2780, 48 h, read-out: Activity
A2780 [12] = assay: Induction of apoptosis in human A2780 cells assessed as late-stage apoptotic cells at 0.06 uM after 48 hrs by annexin V/PI double staining (reference value: 10.20%)
WI-38 [13] = assay: Cell cycle arrest in human WI38 cells assessed as accumulation at G2/M phase at 1 uM after 24 hrs by flow cytometric analysis (reference value: 17.36%)
[14] = Antiproliferative activity against human PANC1 cells assessed as cell growth inhibition after 72 hrs by MTT assay; settings: PANC-1, 72 h
WI-38 [15] = assay: Induction of apoptosis in human WI38 cells assessed as late-stage apoptotic cells at […] after 48 hrs by annexin V/PI double staining (reference value: 16.26%)
WI-38 [16] = assay: Induction of apoptosis in human WI38 cells assessed as necrotic cells at 0.06 uM after 48 hrs by annexin V/PI double staining (reference value: 0.99%)
WI-38 [17] = assay: Induction of apoptosis in human WI38 cells assessed as viable cells at […] after 48 hrs by annexin V/PI double staining (reference value: 80.59%); settings: WI-38, 48 h, read-out: Activity
A2780 [18] = assay: Induction of apoptosis in human A2780 cells assessed as viable cells at […] after 48 hrs by annexin V/PI double staining (reference value: 82.12%); settings: A2780, 48 h, read-out: Activity
WI-38 [19] = assay: Induction of apoptosis in human WI38 cells assessed as viable cells at 0.06 uM after 48 hrs by annexin V/PI double staining (reference value: 80.59%); settings: WI-38, 48 h, read-out: Activity
MDA-MB-231 = assay: Antiproliferative activity against ER negative human MDA-MB-231 cells assessed as cell growth inhibition after 72 hrs by MTT assay; settings: MDA-MB-231, 72 h
WI-38 [20] = assay: Cell cycle arrest in human WI38 cells assessed as accumulation at S phase at 1 uM after 24 hrs by flow cytometric analysis (reference value: 16.25%)
WI-38 [21] = assay: Cell cycle arrest in human WI38 cells assessed as accumulation at subG1 phase at 1 uM after 24 hrs by flow cytometric analysis (reference value: 10.53%)
WI-38 [22] = assay: Cell cycle arrest in human WI38 cells assessed as accumulation at subG1 phase at 0.06 uM after 24 hrs by flow cytometric analysis (reference value: 10.53%)
WI-38 [23] = assay: Cell cycle arrest in human WI38 cells assessed as accumulation at G1 phase at […] after 24 hrs by flow cytometric analysis (reference value: 55.89%)
DU-145 = assay: Antiproliferative activity against AR negative human DU145 cells assessed as cell growth inhibition after 72 hrs by MTT assay; settings: DU-145, 72 h
A2780 [24] = assay: Cell cycle arrest in human A2780 cells assessed as accumulation at G2/M phase at […] after 24 hrs by flow cytometric analysis (reference value: 21.81%)
A2780 [25] = assay: Induction of apoptosis in human A2780 cells assessed as necrotic cells at […] after 48 hrs by annexin V/PI double staining (reference value: 0.53%)
A2780 [26] = assay: Cell cycle arrest in human A2780 cells assessed as accumulation at G2/M phase at 1 uM after 24 hrs by flow cytometric analysis (reference value: 21.81%)
A2780 [27] = assay: Cell cycle arrest in human A2780 cells assessed as accumulation at G1 phase at 1 uM after 24 hrs by flow cytometric analysis (reference value: 54.89%)
WI-38 [28] = assay: Antiproliferative activity against human WI38 cells assessed as cell growth inhibition after 72 hrs by MTT assay; settings: WI-38, 72 h
A2780 [29] = assay: Cell cycle arrest in human A2780 cells assessed as accumulation at G2/M phase at 0.06 uM after 24 hrs by flow cytometric analysis (reference value: 21.81%)
WI-38 [30] = assay: Cell cycle arrest in human WI38 cells assessed as accumulation at G2/M phase at 0.06 uM after 24 hrs by flow cytometric analysis (reference value: 17.36%)
A2780 [31] = assay: Cell cycle arrest in human A2780 cells assessed as accumulation at S phase at 1 uM after 24 hrs by flow cytometric analysis (reference value: 22.72%)
WI-38 [32] = assay: Induction of apoptosis in human WI38 cells assessed as necrotic cells at […] after 48 hrs by annexin V/PI double staining (reference value: 0.99%)
WI-38 [33] = assay: Induction of apoptosis in human WI38 cells assessed as early-stage apoptotic cells at […] after 48 hrs by annexin V/PI double staining (reference value: 2.16%)

SMILES	GI50 (HeLa) [µM]	GI50 (MCF7) [µM]	Activity (A2780 [1]) [%]	Activity (WI-38 [2]) [%]	Activity (WI-38 [3]) [%]	Activity (WI-38 [4]) [%]	viability at 1 µM (WI-38 [5]) [%]	GI50 (HCT-116) [µM]	Activity (WI-38 [6]) [%]	Activity (A2780 [7]) [%]	Activity (WI-38 [8]) [%]	Activity (A2780 [9]) [%]	Activity (A2780 [10]) [%]	viability at 1 µM (A2780 [11]) [%]	Activity (A2780 [12]) [%]	Activity (WI-38 [13]) [%]	GI50 [14] [µM]	Activity (WI-38 [15]) [%]	Activity (WI-38 [16]) [%]	viability at […] (WI-38 [17]) [%]	other results
COc1cc(OC)c(/C=C/S(=O)(=O)Cc2ccc(OC)c(NCC(=O)O)c2)c(OC)c1 [RIGOSERTIB]	0.012	0.05	26.34	1.68	2.99	26.83	65.7	0.07	22.43	14.92	64.47	0.63	0.32	26.6	6.27	19.27	0.039	19.49	1.25	73.2	viability at […] (A2780 [18]): 46.2%; viability at 0.06 µM (WI-38 [19]): 85.5%; GI50 (MDA-MB-231): 0.057 µM; Activity (WI-38 [20]): 10.36%; Activity (WI-38 [21]): 6.57%; Activity (WI-38 [22]): 5.71%; Activity (WI-38 [23]): 54.39%; GI50 (DU-145): 0.075 µM; Activity (A2780 [24]): 31.77%; Activity (A2780 [25]): 0.71%; Activity (A2780 [26]): 60.57%; Activity (A2780 [27]): 5.37%; GI50 (WI-38 [28]): > 10 µM; Activity (A2780 [29]): 19.63%; Activity (WI-38 [30]): 18%; Activity (A2780 [31]): 33.83%; Activity (WI-38 [32]): 1.89%; Activity (WI-38 [33]): 5.36%
COc1cc(OC)c(/C=C/S(=O)(=O)Cc2ccc(OC)c(NS(C)(=O)=O)n2)c(OC)c1	0.556	0.468	20.54	2.49	1.73	14.08	67	0.61	21.15	5.88	51.48	0.95	7.27	35.6	7.36	26.14	0.604	11.58	0.86	84.4	viability at […] (A2780 [18]): 88%; viability at 0.06 µM (WI-38 [19]): 78.1%; GI50 (MDA-MB-231): 0.641 µM; Activity (WI-38 [20]): 9.93%; Activity (WI-38 [21]): 5.66%; Activity (WI-38 [22]): 10.05%; Activity (WI-38 [23]): 61.63%; GI50 (DU-145): 0.484 µM; Activity (A2780 [24]): 19.36%; Activity (A2780 [25]): 0.48%; Activity (A2780 [26]): 59.38%; Activity (A2780 [27]): 14.2%; GI50 (WI-38 [28]): > 10 µM; Activity (A2780 [29]): 21.08%; Activity (WI-38 [30]): 13.96%; Activity (A2780 [31]): 19.16%; Activity (WI-38 [32]): 1.11%; Activity (WI-38 [33]): 2.86%
COc1cc(OC)c(/C=C/S(=O)(=O)Cc2ccc(OC)c(N)n2)c(OC)c1	< 0.001	0.006	17.39	1.37	1.83	24.87	79.8	0.008	15.52	25.61	54.04	10.06	2.71	22.2	25.69	24.94	< 0.001	8.7	3.39	84.4	viability at […] (A2780 [18]): 25.3%; viability at 0.06 µM (WI-38 [19]): 82.2%; GI50 (MDA-MB-231): 0.007 µM; Activity (WI-38 [20]): 6.87%; Activity (WI-38 [21]): 8.09%; Activity (WI-38 [22]): 13.31%; Activity (WI-38 [23]): 53.55%; GI50 (DU-145): 0.006 µM; Activity (A2780 [24]): 50.94%; Activity (A2780 [25]): 1.97%; Activity (A2780 [26]): 59.78%; Activity (A2780 [27]): 13.02%; GI50 (WI-38 [28]): > 10 µM; Activity (A2780 [29]): 59.72%; Activity (WI-38 [30]): 22.85%; Activity (A2780 [31]): 24.49%; Activity (WI-38 [32]): 5.41%; Activity (WI-38 [33]): 1.49%
